{"source": "patent US20140066475A1", "about": "“Method For Treating Pruritus” (Euro-Celtique S.A., priority 2012, published 2014)", "key": {"[1]": {"target": "μ-opioid receptor (Homo sapiens, UniProt P35372)", "sequence (P35372 whole entry, species assumed)": "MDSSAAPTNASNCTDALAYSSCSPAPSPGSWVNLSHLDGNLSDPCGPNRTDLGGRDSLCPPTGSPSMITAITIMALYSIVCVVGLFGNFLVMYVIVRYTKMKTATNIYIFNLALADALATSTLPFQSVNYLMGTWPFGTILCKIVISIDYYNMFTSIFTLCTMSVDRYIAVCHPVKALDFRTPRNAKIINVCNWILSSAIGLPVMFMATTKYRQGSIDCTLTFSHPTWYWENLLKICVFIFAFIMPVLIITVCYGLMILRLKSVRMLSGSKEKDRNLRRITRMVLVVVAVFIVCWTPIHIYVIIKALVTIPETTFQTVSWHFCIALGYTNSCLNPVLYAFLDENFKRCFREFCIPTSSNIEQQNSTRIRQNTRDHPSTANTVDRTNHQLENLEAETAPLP", "test": "μ-opioid receptor [35S]GTPγS functional assay", "assay_type": "biochemical", "excerpt": "Measures of a compound's activity at a given receptor are given by GTP Emax and GTP EC50. GTP Emax (%) is the maximal effect elicited by a compound relative to the effect elicited by a standard, known agonist compound. GTP EC50 is the concentration of a compound providing 50% of the maximal response for that compound at a given receptor. For MOR, the μ GTP Emax (%) is the maximal effect elicited by a compound relative to the effect elicited by the standard MOR agonist [D-Ala^2, N-methyl-Phe^4 Gly-ol^5]-enkephalin (a/k/a DAMGO). Generally, the μ GTP Emax (%) value measures the efficacy of a compound to treat or prevent pain or diarrhea.\nμ-Opioid Receptor Functional Assay Procedures:\n[^35S]GTPγS functional assays were conducted using freshly thawed μ-receptor membranes. Assay reactions were prepared by sequentially adding the following reagents to binding buffer (100 mM NaCl, 10 mM MgCl2, 20 mM HEPES, pH 7.4) on ice (final concentrations indicated): membrane protein (0.026 mg/mL), saponin ([…]), GDP ([…]) and [^35S]GTPγS (0.20 nM; NEN). […] BetaScint scintillation cocktail (Wallac, Turku, Finland) was added (50 μl/well) and plates were counted using a Packard Top-Count for 1 min/well. Data were analyzed using the sigmoidal dose-response curve fitting functions in GraphPad PRISM v. […]"}, "[2]": {"target": "T1, kappa opioid receptor (Homo sapiens, UniProt P41145)", "T1 construct": "expressed in transfected cells; host or cells: HEK-293", "T1 sequence (P41145 whole entry)": "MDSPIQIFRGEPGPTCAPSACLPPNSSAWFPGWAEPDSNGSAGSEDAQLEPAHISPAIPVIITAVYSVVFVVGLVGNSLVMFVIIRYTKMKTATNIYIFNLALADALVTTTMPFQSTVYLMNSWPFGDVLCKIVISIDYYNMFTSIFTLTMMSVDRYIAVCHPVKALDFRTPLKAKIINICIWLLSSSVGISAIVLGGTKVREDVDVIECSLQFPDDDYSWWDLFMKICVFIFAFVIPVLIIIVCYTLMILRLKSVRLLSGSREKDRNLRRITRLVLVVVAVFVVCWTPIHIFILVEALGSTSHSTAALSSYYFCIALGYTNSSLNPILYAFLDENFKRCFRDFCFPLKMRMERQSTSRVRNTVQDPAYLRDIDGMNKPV", "test": "κ-opioid receptor [35S]GTPγS functional assay", "assay_type": "biochemical", "details": "relative to U69,593; read-out: GTPγS κ Emax [mean ± SEM]", "method": "Similarly for KOR, the κ GTP Emax (%) is the maximal effect elicited by a compound relative to the effect elicited by the known κ-agonist, U69,593.\nκ-Opioid Receptor Functional Assay Procedures:\nFunctional [^35S]GTPγS binding assays were conducted as follows. Kappa opioid receptor membrane solution was prepared by sequentially adding final concentrations of 0.026 μg/μl kappa membrane protein (in-house), 10 μg/mL saponin, 3 μM GDP and 0.20 nM [^35S]GTPγS to binding buffer (100 mM NaCl, 10 mM MgCl2, 20 mM HEPES, pH 7.4) on ice. The prepared membrane solution (190 μl/well) was transferred to 96-shallow well polypropylene plates containing 10 μl of 20× concentrated stock solutions of agonist prepared in DMSO. Plates were incubated for 30 min at a temperature of about 25° C. with shaking. Reactions were terminated by rapid filtration onto 96-well Unifilter GF/B filter plates (Packard) using a 96-well tissue harvester (Packard) and followed by three filtration washes with 200 μl ice-cold […] (10 mM NaH2PO4, 10 mM Na2HPO4, pH 7.4). Filter plates were subsequently dried at 50° C. for 2-3 hours. Fifty μl/well scintillation cocktail (MicroScint20, Packard) was added and plates were counted in a Packard Top-Count for 1 min/well."}, "[3]": {"test_system": "adult male CD-1 mice", "test": "In vivo itch response assay (Compound 48/80-induced scratching)", "details": "for Effect on scratch response: given 20 min before pruritogen Compound 48/80", "method": "In Vivo Model and Procedures:\nAn in vivo model was devised and implemented to evaluate the antipruritic activity of compounds in mice. Compound 48/80 (Sigma Chemical), a known pruritogen in mice, was mixed in a 0.9% saline vehicle and administered to various cohorts of adult male CD-1 mice by s.c. injection at the nape of the neck at dosage levels of 12.5, 25, 50 and 100 μg. The saline vehicle alone was used as a control. The mice were monitored visually and scratching bouts were counted over the ensuing 30 minutes.\nNext, test benzomorphan Compound #1 (see Examples 1 and 2 above) was given in various doses (Table 3 below) in the rear flank 20 minutes prior to pruritogen injection in the same manner as the Nalfurafine."}}, "note": "Structures can show the parent of a compound that is named as a salt. Marks after values point to notes of the source that are not given here.", "data": [{"molecule": "C=CC[N+]1(C)CCC2(C)c3cc(O)ccc3C[C@@H]1[C@@H]2C.[I-]", "note": "(stereo partly drawn) [Compound #1]", "values": [{"measurement": "EC50", "setting": "[1]", "result": "> 20", "unit": "µM"}, {"measurement": "Emax", "setting": "[1]; relative to DAMGO, read-out: GTPγS μ Emax [mean ± SEM]", "result": "3.67 ± 1.33", "unit": "%"}, {"measurement": "Emax", "setting": "[2]", "result": "27.3 ± 3.38", "unit": "%"}, {"measurement": "Total # Scratching Bouts in 30 mins (mean ± S.E.M.)", "setting": "[3]; 3 mg/kg in rear flank 20 min before Compound 48/80 (0.5 mg/kg)", "result": "155.8 ± 13.73^a"}, {"measurement": "Total # Scratching Bouts in 30 mins (mean ± S.E.M.)", "setting": "[3]; 10 mg/kg in rear flank 20 min before Compound 48/80 (0.5 mg/kg)", "result": "129.4 ± 16.18^b"}, {"measurement": "Total # Scratching Bouts in 30 mins (mean ± S.E.M.)", "setting": "[3]; 30 mg/kg in rear flank 20 min before Compound 48/80 (0.5 mg/kg)", "result": "70.8 ± 19.74^c"}, {"measurement": "Effect on scratch response", "setting": "[3]", "result": "alleviated pruritus by reducing the mean number of scratching bouts"}]}, {"molecule": "CN(C(=O)/C=C/c1ccoc1)[C@@H]1CC[C@@]2(O)[C@H]3Cc4ccc(O)c5c4[C@@]2(CCN3CC2CC2)[C@H]1O5", "note": "[Nalfurafine, Nalfurafine HCl, reference compound]", "values": [{"measurement": "Total # Scratching Bouts in 30 mins (mean ± S.E.M.)", "setting": "[3]; 0.04 mg/kg s.c. 20 min before Compound 48/80 (0.5 mg/kg)", "result": "25.6 ± 7.92^d"}, {"measurement": "Effect on scratch response", "setting": "[3]", "result": "dose dependent reduction in scratch response"}]}]}
